# PubChem BioAssay (NCI)
# “And” between values parts separate entries of the source, which are not always exact repeats. Equal values may be shown once.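 Assay format: 96-well plates, 48-hour exposure. The concentration for 50% growth inhibition is given as GI50. At the TGI there is no net growth.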
# Columns and labels:
# Test in all cases: DTP human tumour cell line panel, 48 h
# [1] = test system: TK-10 renal
# [2] = test system: OVCAR-4 ovarian
# [3] = test system: ACHN renal
# [4] = test system: HOP-92 NSCLC
# [5] = test system: RPMI-8226 leukemia
# [6] = test system: HL-60(TB) leukemia
# [7] = test system: CAKI-1 renal
# [8] = test system: OVCAR-8 ovarian
# [9] = test system: UACC-62 melanoma
# [10] = test system: NCI-H522 lung
Compound,TGI [1],TGI [2],TGI [3],TGI [4],TGI [5],TGI [6],TGI [7],TGI [8],TGI [9],TGI [10],GI50 [5],GI50 [7],GI50 [10],GI50 [2],GI50 [4],GI50 [6],GI50 [3],GI50 [1],GI50 [9],GI50 [8]
COc1ccc2[nH]c3c([N+](=O)[O-])ccc(Cl)c3c(=O)c2c1,> 56.6 µM,28.7 µM,29.3 µM,29.7 µM,45.4 µM,9.84 µM,49.5 µM,> 74 µM,34.5 µM,36.9 µM,–,–,–,–,–,–,–,–,–,–
O=Nc1ccc(O)c2ncccc12,28.2 µM,24.1 µM,14.5 µM,11.9 µM,99.8 µM,> 41.6 µM,31.1 µM,> 34.1 µM,2.34 µM,3.58 µM,–,–,–,–,–,–,–,–,–,–
CCN=C=NCCCN(C)C,> 100 µM,> 100 µM,> 100 µM,> 100 µM,> 100 µM,> 100 µM,> 100 µM,> 100 µM,> 100 µM,> 100 µM,–,–,–,–,–,–,–,–,–,–
C/C1=N\NC(=O)c2ccccc2C(=O)N/N=C(\C)c2cccc1n2.O=[N+]([O-])[O-].[Zn+2],> 100 µM,> 100 µM,> 100 µM,–,> 100 µM,–,> 100 µM,> 100 µM,> 100 µM,> 100 µM,–,–,–,–,–,–,–,–,–,–
N=C(N)c1ccc(-c2ccc(-c3cncc4ccccc34)s2)cc1F,–,–,–,–,4.49 µM,–,2.91 µM,–,–,5.56 µM,1.64 µM,1.52 µM,2.2 µM,–,–,–,–,–,–,–
OC(Cc1ccccc1)(Cc1ccccc1)c1ccccc1,42.6 µM,32.4 µM,33.5 µM,32.2 µM,> 100 µM,52.8 µM,47.7 µM,39.6 µM,31.3 µM,32.3 µM,–,–,–,–,–,–,–,–,–,–
Nc1ccc(OCC(O)N2C(=O)c3ccccc3C2=O)cc1 (stereo not given),> 100 µM,> 100 µM,> 100 µM,–,> 100 µM,> 100 µM,–,> 100 µM,> 100 µM,> 100 µM,–,–,–,–,–,–,–,–,–,–
O=S(=O)(O)c1cc(N=Nc2cc(S(=O)(=O)O)c3ccccc3c2O)ccc1/C=C/c1ccc(N=Nc2cc(S(=O)(=O)O)c3ccccc3c2O)cc1S(=O)(=O)O,220 µM,> 1000 µM,> 755 µM,> 463 µM,> 311 µM,41.2 µM and 104 µM,> 756 µM,> 1000 µM,> 628 µM,> 669 µM,–,–,–,> 807 µM,> 262 µM,43.4 µM,–,–,–,–
COc1cc(C(C)(C)C)cc(OC)c1C(O)(c1c(OC)cc(C(C)(C)C)cc1OC)c1c(OC)cc(C(C)(C)C)cc1OC,–,1.06 µM,0.987 µM,–,0.725 µM,0.394 µM,–,–,–,0.768 µM,0.233 µM,–,0.237 µM,0.307 µM,–,0.14 µM,0.284 µM,–,–,–
C=C(CN(C)C)C(=O)c1ccc(C)cc1C,22.2 µM,33.5 µM,19.3 µM,10.4 µM,> 100 µM,11.6 µM,8.39 µM,37.4 µM,31.5 µM,14.4 µM,–,–,–,–,–,–,–,–,–,–
Cc1ccc(P(c2ccc(C)cc2)c2ccc(C)cc2)cc1,> 100 µM,80.3 µM,> 100 µM,20.8 µM,34.6 µM,> 100 µM,98.5 µM,59.6 µM,52.3 µM,28.2 µM,–,–,–,–,–,–,–,–,–,–
CC(C)(C)C1(c2ccc(C3(c4ccccc4)Oc4ccccc4S3)[nH]2)Oc2ccccc2S1 (stereo not given),> 100 µM,–,> 100 µM,> 100 µM,> 100 µM,> 100 µM,> 100 µM,> 100 µM,> 100 µM,> 100 µM,–,–,–,–,–,–,–,–,–,–
O=C(O)CC(C(=O)O)C1c2ccccc2-c2ccccc21 (stereo not given),> 100 µM,> 100 µM,> 100 µM,–,> 100 µM,> 100 µM,> 100 µM,> 100 µM,> 100 µM,> 100 µM,–,–,–,–,–,–,–,–,–,–
COC1/C=C\OC2(C)Oc3c(C)c(O)c4c(O)c(c(/C=N\OCCCc5ccccc5)c(O)c4c3C2=O)NC(=O)/C(C)=C\C=C/C(C)C(O)C(C)C(O)C(C)C(OC(C)=O)C1C (stereo not given),8.47 µM,12.6 µM,7.39 µM,6.26 µM,–,5.38 µM,15.2 µM,17.8 µM,10.1 µM,10.7 µM,–,–,–,–,–,–,–,–,–,–
c1ccc(-n2cnnc2-c2nsc3ccccc23)cc1,> 100 µM,> 100 µM,> 100 µM,> 100 µM,> 100 µM,> 100 µM,–,> 100 µM,> 100 µM,–,–,–,–,–,–,–,–,–,–,–
Nc1cc(S(=O)(=O)O)cc2cc(S(=O)(=O)O)c(N=Nc3ccc(-c4ccc(N=Nc5c(S(=O)(=O)O)cc6cc(S(=O)(=O)O)cc(N)c6c5O)cc4)cc3)c(O)c12,–,> 100 µM,–,> 100 µM,> 100 µM,> 100 µM,–,> 100 µM,–,> 100 µM,–,–,–,–,–,–,–,–,–,–
O=[N+]([O-])c1ccc(/C=N\Nc2ccc([N+](=O)[O-])cn2)cc1,> 100 µM,> 100 µM,> 100 µM,> 100 µM,> 100 µM,> 100 µM,–,> 100 µM,> 100 µM,> 100 µM,–,–,–,–,–,–,–,–,–,–
C=C(C)[C@@H]1CC[C@]2(C(=O)Nc3ccccn3)CC[C@]3(C)[C@H](CC[C@@H]4[C@@]5(C)CCCNC(C)(C)[C@@H]5CC[C@]43C)[C@@H]12,5.45 µM,2.99 µM,4.64 µM,7.64 µM,–,4.28 µM,2.93 µM,–,3.12 µM,–,–,1.55 µM,–,1.44 µM,2.06 µM,1.82 µM,2.08 µM,2.26 µM,1.64 µM,–
CCN(CC)C(=S)SC(=S)N(CC)CC,> 100 µM,> 100 µM,> 100 µM,> 87.3 µM,57.4 µM,> 100 µM,99.7 µM,> 100 µM,> 93.1 µM,18.2 µM,–,–,–,–,–,–,–,–,–,–
Nc1nc(N)c2ncn(-c3ccc(Cl)c(Cl)c3)c2n1,70.6 µM,> 100 µM,> 100 µM,> 100 µM,75.2 µM,–,> 100 µM,> 100 µM,43 µM,> 100 µM,–,–,–,–,–,–,–,–,–,–
C=C(C)C(=O)OC1C(C(C)CCCO)=C(CO)CC2OC(=O)C(=C)C21 (stereo not given),> 100 µM,> 100 µM,79.8 µM,44.2 µM,91.9 µM,> 100 µM,31.3 µM,> 100 µM,31.9 µM,13.1 µM,–,–,–,–,–,–,–,–,–,–
C=C(C)C1CC2=C(O1)C(=O)c1ccccc1C2=O (stereo not given),46.3 µM,24 µM,–,30.8 µM,44.5 µM,15 µM,31.7 µM,35.6 µM,30.4 µM,39.4 µM,–,–,–,–,–,–,–,–,–,–
COc1ccc(-c2nn(-c3ccc(NC(=O)Nc4ccc(Cl)c(Cl)c4)cc3)cc2-c2ccncc2)cc1Cl,> 100 µM,> 100 µM,> 100 µM,5.72 µM,3.18 µM,6.6 µM,15.4 µM,> 100 µM,7.33 µM,5.66 µM,0.54 µM,1.95 µM,1.39 µM,1.79 µM,1.82 µM,2.21 µM,2.27 µM,2.04 µM,2.1 µM,2.72 µM
CC(C)=CCc1c(O)ccc2c1OC1c3ccc(O)c(CC=C(C)C)c3OCC21 (stereo not given),–,23.6 µM,–,> 100 µM,17.1 µM,31.4 µM,25 µM,52.6 µM,18.7 µM,25.5 µM,–,–,–,–,–,–,–,–,–,–
